In brackets after ≈: the same amount, converted by molar mass. Like-named read-outs stand apart in the source and are kept apart here. Where a SMILES comes first, the peptide text is derived from it. [ ]: non-standard residue; d: D form. The star is where a group is joined. d(aIle) = CC[C@H](C)[C@@H](N)C(=O)O; X1 = CC[C@H](C)CCCCC(=O)*; dDab = NCC[C@@H](N)C(=O)O; Dab = NCC[C@H](N)C(=O)O
What was measured:
E. coli = type: cell-based, Escherichia coli
Procedure: The MIC for all isolates was determined using the broth microdilution method. This involved preparing CA-MHB medium and serially diluting antibiotic solutions by a factor of two. The test organism was adjusted to a concentration of ≈5 × 10^5 CFU/mL. In a sterile 96-well microtiter plate, 100 µL of CA-MHB, along with 100 µL of each antibiotic, was added, and serial dilutions were made. A 100 µL suspension of the organism was added to each well and mixed, resulting in a total reaction volume of 200 µL per well. The plate was then incubated at 37°C for 16–18 h. The MIC was identified as the lowest concentration of antibiotic that prevented any visible growth of the organism ([16]).

Salmonella typhimurium = type: cell-based
Procedure: The Salmonella typhimurium histidine-dependent engineered tester strains are allowed to incubate with S9 enzyme mix or PBS (without S9 set) for 30 min at 35°C. After incubation, the mixture was added to 2 mL of top agar tubes maintained at 46 ± 2°C and plated onto minimal glucose agar plates. After solidification, the plates are incubated at 37°C. Salmonella typhimurium auxotrophic mutants, if grown on minimal media, are counted as the number of revertant colonies due to the mutagenic potential of the compound tested. Positive controls, growth controls, and sterility checks are included during the experimentation for the sensitivity of the experiment ([38]).

[1] = rat liver microsomes
Procedure: For without cofactors, 20 µL of PBS was added instead of pre-incubated cofactors. […] At each specified time, a 100 µL sample was taken, processed through a sample extraction procedure, and submitted for LC-MS/MS analysis ([35]). Half-life (t1/2) of test/control items was determined using the following equation
where, elimination rate constant (k) = −(slope of linear regression curve).

CC[C@H](C)CCCCC(=O)NCC(=O)N[C@H](CCN)C(=O)NCC(=O)N[C@H](CO)C(=O)N[C@H](Cc1c[nH]c2ccccc12)C(=O)N[C@@H](CO)C(=O)N[C@@H](CCN)C(=O)N[C@H](CCN)C(=O)N[C@H](C(=O)N[C@@H](CCC(=O)O)C(=O)N[C@H](C(=O)N[C@@H](C(=O)N[C@@H](CO)C(=O)O)[C@@H](C)CC)[C@@H](C)CC)[C@@H](C)CC [Tridecaptin M, tridecaptin M] (X1-G[dDab]G[dS][dW]S[Dab][dDab]IEI[d(aIle)]S-OH)
MIC (E. coli): 4 µg/mL (≈ 2.69 µM)
MIC50 (E. coli): 4 µg/mL (≈ 2.69 µM)
MIC range (E. coli): 1 to 8 µg/mL
MIC values (E. coli): 2 to 8 µg/mL
AMES test Remark (Salmonella typhimurium; 0.03 μg/plate): Mutagenic response not observed
AMES test TA98 (Salmonella typhimurium; 0.03 μg/plate): NC, NR
AMES test TA100 (Salmonella typhimurium; 0.03 μg/plate): NC, NR
AMES test TA102 (Salmonella typhimurium; 0.03 μg/plate): NC, NR
AMES test TA1535 (Salmonella typhimurium; 0.03 μg/plate): NC, NR
AMES test TA1537 (Salmonella typhimurium; 0.03 μg/plate): NC, NR
AMES test Remark (Salmonella typhimurium; 0.10 μg/plate): Mutagenic response not observed
AMES test TA98 (Salmonella typhimurium; 0.10 μg/plate): NC, NR
AMES test TA100 (Salmonella typhimurium; 0.10 μg/plate): NC, NR
AMES test TA102 (Salmonella typhimurium; 0.10 μg/plate): NC, NR
AMES test TA1535 (Salmonella typhimurium; 0.10 μg/plate): NC, NR
AMES test TA1537 (Salmonella typhimurium; 0.10 μg/plate): NC, NR
AMES test Remark (Salmonella typhimurium; 0.32 μg/plate): Mutagenic response not observed
AMES test TA98 (Salmonella typhimurium; 0.32 μg/plate): NC, NR
AMES test TA100 (Salmonella typhimurium; 0.32 μg/plate): NC, NR
AMES test TA102 (Salmonella typhimurium; 0.32 μg/plate): NC, NR
AMES test TA1535 (Salmonella typhimurium; 0.32 μg/plate): NC, NR
AMES test TA1537 (Salmonella typhimurium; 0.32 μg/plate): NC, NR
AMES test Remark (Salmonella typhimurium; 1.00 μg/plate): Mutagenic response not observed
AMES test TA98 (Salmonella typhimurium; 1.00 μg/plate): NC, NR
AMES test TA100 (Salmonella typhimurium; 1.00 μg/plate): NC, NR
AMES test TA102 (Salmonella typhimurium; 1.00 μg/plate): NC, NR
AMES test TA1535 (Salmonella typhimurium; 1.00 μg/plate): NC, NR
AMES test TA1537 (Salmonella typhimurium; 1.00 μg/plate): NC, NR
AMES test Remark (Salmonella typhimurium; 3.16 μg/plate): Mutagenic response not observed
AMES test TA98 (Salmonella typhimurium; 3.16 μg/plate): NC, NR
AMES test TA100 (Salmonella typhimurium; 3.16 μg/plate): NC, NR
AMES test TA102 (Salmonella typhimurium; 3.16 μg/plate): NC, NR
AMES test TA1535 (Salmonella typhimurium; 3.16 μg/plate): NC, NR
AMES test TA1537 (Salmonella typhimurium; 3.16 μg/plate): NC, NR
AMES test Remark (Salmonella typhimurium; 10 μg/plate): Cytotoxicity observed
AMES test TA98 (Salmonella typhimurium; 10 μg/plate): PI, RC
AMES test TA100 (Salmonella typhimurium; 10 μg/plate): PI, RC
AMES test TA102 (Salmonella typhimurium; 10 μg/plate): PI, RC
AMES test TA1535 (Salmonella typhimurium; 10 μg/plate): PI, RC
AMES test TA1537 (Salmonella typhimurium; 10 μg/plate): PI, RC
effect on Salmonella typhimurium tester strains (Salmonella typhimurium; 10 µg/plate and above): cytotoxic
mutagenic potential (Salmonella typhimurium; 3.16, 1.00, 0.32 and 0.10 µg/plate, presence and absence of S9): did not show any mutagenic potential
CL [1]: <11.55 µL/min/mg
